From US11771685B2, “Compounds for the treatment of neurological or mitochondrial diseases” (MUSC FOUNDATION FOR RESEARCH DEVELOPMENT, priority 2018, dated 2023) come the findings set out here.

Data set [1] is described as follows: Rotarod neurotoxicity test in mice. Type of data set: in vivo, mouse. The note with it: 1 hr, 44 mA study. The method, then: Mice or rats were administered the NT-102 compound i.p., one hour was allowed to pass (since the time to peak effect was determined to be about one hour), and then rodents were then placed on the Rotarod to determine if any motor defects would be observed; after the rotarod test, then rodents were administered an electrical stimulation to determine if the dose of NT-102 would protect against (i.e., prevent) the seizures due to the electrical stimulation. In particular, using (i) electrical model to test for seizures in mice and, separately, (ii) in rat 6 Hz 40V model. More specifically, NT-102 was injected (i.p.) in 5% DMSO/95% Miglyol 840 as vehicle. Mice were challenged with 6 Hz 44 mA current to see if seizures would result. […] The Time of Peak Effect (TPE) was observed 1 hour. Additional data is shown below in Table 5. The mice were administered the NT-102 at various doses and placed on the rotarod (i.e., “Rotarod (Tox)”) to test if the mice would fall off as a model of due to the effects of NT-102; for the “Rotarod(Tox)” results, the “NIT” indicates the number of mice that fell off the rotarod (e.g., for Rotarod(Tox) results, if N/T is 0/8, then zero out of eight mice fell off). For the electrical stimulation data (i.e., “6 Hz 44 mA”), an electrical stimulation of 6 Hz 44 mA was administered. […] The 44 mA electrical dosage was used since it is considered to be a model to test for medication-resistant epilepsy.
For orientation: The rotarod test checks motor coordination on a turning rod.

Data set [2] has as its system 6 Hz 40 V electrically-induced seizures in rats. The experiment in a line: Rat 6 Hz 40 V seizure model. Type of data set: in vivo. On the procedure: In particular, using (i) electrical model to test for seizures in mice and, separately, (ii) in rat 6 Hz 40V model. More specifically, NT-102 was injected (i.p.) in 5% DMSO/95% Miglyol 840 as vehicle. Mice were challenged with 6 Hz 44 mA current to see if seizures would result. […] The Time of Peak Effect (TPE) was observed 1 hour. Additional data is shown below in Table 5. The mice were administered the NT-102 at various doses and placed on the rotarod (i.e., “Rotarod (Tox)”) to test if the mice would fall off as a model of due to the effects of NT-102; for the “Rotarod(Tox)” results, the “NIT” indicates the number of mice that fell off the rotarod (e.g., for Rotarod(Tox) results, if N/T is 0/8, then zero out of eight mice fell off). For the electrical stimulation data (i.e., “6 Hz 44 mA”), an electrical stimulation of 6 Hz 44 mA was administered. […] The 44 mA electrical dosage was used since it is considered to be a model to test for medication-resistant epilepsy.
The 6 Hz 40 V electrical stimulation amount was used because this electrical dosage is considered to be a rat model for medication-resistant epilepsy.

What is called ED50 is the dose that gives a 50% effect, or the effect in half of the subjects. A lower ED50 goes with greater potency.

Turning to `CC(C)CCNC1=CC(=O)c2ccccc2C1=O` [Compound 17, 2-(Isopentylamino)naphthalene-1,4-dione], the “Rotarod (Tox) N/T, mice that fell off” value is recorded as 0/8 in data set [1] (100 mg/kg i.p.), 2/8 in data set [1] (200 mg/kg i.p.), 0/8 in data set [1] (300 mg/kg i.p.) and 1/8 in data set [1] (400 mg/kg i.p.). Besides, the “6 Hz 40 V N/T, rats protected” value was 1/8 in data set [2] (200 mg/kg, 1 hr); 2/8 in data set [2] (250 mg/kg, 1 hr); 3/8 in data set [2] (300 mg/kg i.p., 0.25 hr); 0/8 in data set [2] (300 mg/kg i.p., 0.5 hr); 5/8 in data set [2] (300 mg/kg i.p., 1 hr); 0/4 in data set [2] (300 mg/kg i.p., 2 hr). Also, the “6 Hz 40 V N/T, rats protected” value in data set [2] (300 mg/kg i.p., 4 hr) was 0/4; in data set [2] (350 mg/kg, 1 hr), 6/8. Besides, the median effective dose (ED50) in data set [2] (Rattus norvegicus, 6 Hz 40 V) amounted to 293 mg/kg. The “Time to peak result” value in data set [2] (i.p., 6 Hz 40 V) was “about one”.
